In patent publication US20240199587A1, “HETEROCYCLIC COMPOUNDS” (Hoffmann-La Roche Inc., priority 2021, published 2024):

What follows are compounds tested against T1, MAGL (Homo sapiens, UniProt Q99685) (assay: 2-AG assay (MAGL inhibitory activity, hydrolysis of 2-arachidonoylglycerol to arachidonic acid followed by mass spectrometry)). Settings: 8 μM 2-arachidonoylglycerol, 15 min pre-incubation, 30 min incubation at RT, RapidFire MS readout.
T1 sequence (Q99685 1-303): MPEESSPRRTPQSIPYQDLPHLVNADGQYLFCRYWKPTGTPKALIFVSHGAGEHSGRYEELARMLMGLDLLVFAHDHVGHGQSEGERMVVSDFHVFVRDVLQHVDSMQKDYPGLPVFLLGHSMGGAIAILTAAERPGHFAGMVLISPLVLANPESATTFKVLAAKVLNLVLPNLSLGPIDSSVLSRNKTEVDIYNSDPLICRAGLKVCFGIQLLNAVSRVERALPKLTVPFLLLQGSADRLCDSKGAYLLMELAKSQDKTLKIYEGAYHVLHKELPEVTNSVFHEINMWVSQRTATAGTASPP
Format: biochemical
Text: Compounds of formula (I) were profiled for MAGL inhibitory activity by determining the enzymatic activity by following the hydrolysis of the natural substrate 2-arachidonoylglycerol (2-AG) resulting in arachidonic acid, which can be followed by mass spectrometry. This assay is hereinafter abbreviated “2-AG assay”.
Compounds of formula (I) were profiled for MAGL inhibitory activity by determining the enzymatic activity by following the hydrolysis of the natural substrate 2-arachidonoylglycerol (2-AG) resulting in arachidonic acid, which can be followed by mass spectrometry. This assay is hereinafter abbreviated “2-AG assay”. The 2-AG assay was carried out in 384 well polypropylene assay plates. […] Compound dilutions were added to MAGL protein in assay buffer (50 mM TRIS, 1 mM EDTA, 0.01% (v/v) Tween-20, 2.5% (v/v) DMSO). After shaking, the plate was incubated for 15 min at RT. To start the reaction, 2-arachidonoylglycerol in assay buffer was added. The final concentrations in the assay was […] for MAGL protein and 8 μM 2-arachidonoylglyerol. After shaking and 30 min incubation at RT, the reaction was quenched by the addition of two assay volumes of acetonitrile containing 4 μM of d8-arachidonic acid. The amount of arachidonic acid formed was traced by an online SPE system (Agilent Rapidfire) coupled to a triple quadrupole mass spectrometer. A C18 SPE cartridge (Agilent G9205A) was used in an acetonitrile/water liquid setup. The mass spectrometer was operated in negative electrospray mode following the mass transitions 303.1→259.1 for arachidonic acid and 311.1→267.0 for d8-arachidonic acid. The activity of the compounds was calculated based on the ratio of intensities [arachidonic acid/d8-arachidonic acid].

Row | IC50 [nM] | Structure (SMILES)
1 | 191 | CC(C)(C)c1nc(-c2ccc(C(=O)N3CC4(CC(n5cc(Cl)cn5)C4)C3)cc2)no1 [Example 6, [4-(5-tert-butyl-1,2,4-oxadiazol-3-yl)phenyl]-[6-(4-chloropyrazol-1-yl)-2-azaspiro[3.3]heptan-2-yl]methanone]
2 | 215 | CC(C)(C)c1nc(-c2ccc(C(=O)N3CC4(CC(n5cc(C6CC6)cn5)C4)C3)cc2)no1 [Example 7, [4-(5-tert-butyl-1,2,4-oxadiazol-3-yl)phenyl]-[6-(4-cyclopropylpyrazol-1-yl)-2-azaspiro[3.3]heptan-2-yl]methanone]
3 | 485 | CC(C)(C)c1nc(-c2ccc(C(=O)N3CC4(CC(n5ccc(C#N)n5)C4)C3)cc2)no1 [Example 8, 1-[2-[4-(5-tert-butyl-1,2,4-oxadiazol-3-yl)benzoyl]-2-azaspiro[3.3]heptan-6-yl]pyrazole-3-carbonitrile]
4 | 613 | CC(C)(C)c1nc(-c2ccc(C(=O)N3CC4(CC(n5ccc(C6(C)CC6)n5)C4)C3)cc2)no1 [Example 9, [4-(5-tert-butyl-1,2,4-oxadiazol-3-yl)phenyl]-[6-[3-(1-methylcyclopropyl)pyrazol-1-yl]-2-azaspiro[3.3]heptan-2-yl]methanone]
5 | 33.1 | CC(C)(C)c1nc(-c2ccc(C(=O)N3CC4(CC(n5nccc5C5(C)CC5)C4)C3)cc2)no1 [Example 10, [4-(5-tert-butyl-1,2,4-oxadiazol-3-yl)phenyl]-[6-[5-(1-methylcyclopropyl)pyrazol-1-yl]-2-azaspiro[3.3]heptan-2-yl]methanone]
6 | 1290 | COc1cnn(C2CC3(C2)CN(C(=O)c2ccc(-c4noc(C(C)(C)C)n4)cc2)C3)c1 [Example 11, [4-(5-tert-butyl-1,2,4-oxadiazol-3-yl)phenyl]-[6-(4-methoxypyrazol-1-yl)-2-azaspiro[3.3]heptan-2-yl]methanone]
7 | 36.7 | CC(C)(C)c1nc(-c2ccc(C(=O)N3CC4(CC(n5cc6c(n5)CCCC6)C4)C3)cc2)no1 [Example 12, [4-(5-tert-butyl-1,2,4-oxadiazol-3-yl)phenyl]-[6-(4,5,6,7-tetrahydroindazol-2-yl)-2-azaspiro[3.3]heptan-2-yl]methanone]
8 | 152 | COc1ccn(C2CC3(C2)CN(C(=O)c2ccc(-c4noc(C(C)(C)C)n4)cc2)C3)n1 [Example 13, [4-(5-tert-butyl-1,2,4-oxadiazol-3-yl)phenyl]-[6-(3-methoxypyrazol-1-yl)-2-azaspiro[3.3]heptan-2-yl]methanone]
9 | 197 | CC(C)(C)c1nc(-c2ccc(C(=O)N3CC4(CC(n5cc6c(n5)CCOC6)C4)C3)cc2)no1 [Example 14, [4-(5-tert-butyl-1,2,4-oxadiazol-3-yl)phenyl]-[6-(6,7-dihydro-4H-pyrano[4,3-c]pyrazol-2-yl)-2-azaspiro[3.3]heptan-2-yl]methanone]
10 | 2670 | CC(C)(C)c1nc(-c2ccc(C(=O)N3CC4(CC(n5cc(F)cn5)C4)C3)cc2)no1 [Example 15, [4-(5-tert-butyl-1,2,4-oxadiazol-3-yl)phenyl]-[6-(4-fluoropyrazol-1-yl)-2-azaspiro[3.3]heptan-2-yl]methanone]
11 | 2810 | CC(C)(C)c1nc(-c2ccc(C(=O)N3CC4(CC(n5nccc5C(F)(F)F)C4)C3)cc2)no1 [Example 16, [4-(5-tert-buty1-1,2,4-oxadiazol-3-yl)phenyl]-[6-[5-(trifluoromethyl)pyrazol-1-yl]-2-azaspiro[3.3]heptan-2-yl]methanone]
12 | 3360 | CC(C)(C)c1nc(-c2ccc(C(=O)N3CC4(CC(n5ncnc5C5CC5)C4)C3)cc2)no1 [Example 17, [4-(5-tert-butyl-1,2,4-oxadiazol-3-yl)phenyl]-[6-(5-cyclopropyl-1,2,4-triazol-1-yl)-2-azaspiro[3.3]heptan-2-yl]methanone]
13 | 3730 | CC(C)(C)c1nc(-c2ccc(C(=O)N3CC4(CC(n5ncc6c5CCOC6)C4)C3)cc2)no1 [Example 18, [4-(5-tert-butyl-1,2,4-oxadiazol-3-yl)phenyl]-[6-(6,7-dihydro-4H-pyrano[4,3-c]pyrazol-1-yl)-2-azaspiro[3.3]heptan-2-yl]methanone]
14 | 4170 | COc1ccnn1C1CC2(C1)CN(C(=O)c1ccc(-c3noc(C(C)(C)C)n3)cc1)C2 [Example 19, [4-(5-tert-butyl-1,2,4-oxadiazol-3-yl)phenyl]-[6-(5-methoxypyrazol-1-yl)-2-azaspiro[3.3]heptan-2-yl]methanone]
15 | 82 | CC(C)(C)c1nc(-c2ccc(C(=O)N3CC4(CC(n5cnc(C#N)n5)C4)C3)cc2)no1 [Example 20, 1-[2-[4-(5-tert-butyl-1,2,4-oxadiazol-3-yl)benzoyl]-2-azaspiro[3.3]heptan-6-yl]-1,2,4-triazole-3-carbonitrile]
16 | 451 | CC(C)(C)c1nc(-c2ccc(C(=O)N3CC4(CC(n5ncc6c5CCCC6)C4)C3)cc2)no1 [Example 22, [4-(5-tert-butyl-1,2,4-oxadiazol-3-yl)phenyl]-[6-(4,5,6,7-tetrahydroindazol-1-yl)-2-azaspiro[3.3]heptan-2-yl]methanone]
17 | 229 | Cc1ccc(C2CC3(C2)CN(C(=O)c2ccc(-c4noc(C(C)(C)C)n4)cc2)C3)cn1 [Example 23, [4-(5-tert-butyl-1,2,4-oxadiazol-3-yl)phenyl]−[6-(6-methyl-3-pyridyl)-2-azaspiro[3.3]heptan-2-yl]methanone]
18 | 7.7 | Cc1cc(C(=O)N2CC3(CC(n4cnc(C5CC5)n4)C3)C2)cnc1OCC1(C(F)(F)F)CC1 [Example 24, [6-(3-cyclopropyl-1,2,4-triazol-1-yl)-2-azaspiro[3.3]heptan-2-yl]-[5-methyl-6-[[1-(trifluoromethyl)cyclo-propyl]methoxy]-3-pyridyl]methanone]
19 | 12.2 | Cc1cc(C(=O)N2CC3(CC(n4cnc(C5CC5)c4)C3)C2)cnc1OCC1(C(F)(F)F)CC1 [Example 25, [6-(4-cyclopropylimidazol-1-yl)-2-azaspiro[3.3]heptan-2-yl]-[5-methyl-6-[[1-(trifluoromethyl)cyclo-propyl]methoxy]-3-pyridyl]methanone]
20 | 19.8 | O=C(c1cnc(OCC2(C(F)(F)F)CC2)c(F)c1)N1CC2(CC(n3cnc(C4CC4)n3)C2)C1 [Example 26, [6-(3-cyclopropyl-1,2,4-triazol-1-yl)-2-azaspiro[3.3]heptan-2-yl]−[5-fluoro-6-[[1-(trifluoromethyl)cyclopropyl]methoxy]-3-pyridyl]methanone]
21 | 26.5 | Cc1nc(C(=O)N2CC3(CC(n4cnc(C5CC5)n4)C3)C2)cnc1OCC1(C(F)(F)F)CC1 [Example 27, [6-(3-cyclopropyl-1,2,4-triazol-1-yl)-2-azaspiro[3.3]heptan-2-yl]-[6-methyl-5-[[1-(trifluoromethyl)cyclo-propyl]methoxy]pyrazin-2-yl]methanone]
22 | 50 | O=C(c1cnc(OCC2(C(F)(F)F)CC2)c(F)c1)N1CC2(CC(n3cnc(C4CC4)c3)C2)C1 [Example 28, [6-(4-cyclopropylimidazol-1-yl)-2-azaspiro[3.3]heptan-2-yl]-[5-fluoro-6-[[1-(trifluoromethyl)cyclo-propyl]methoxy]-3-pyridyl]methanone]
23 | 52.2 | CC1(COc2ncc(C(=O)N3CC4(CC(n5cnc(C6CC6)n5)C4)C3)cc2F)CC1 [Example 29, [6-(3-cyclopropyl-1,2,4-triazol-1-yl)-2-azaspiro[3.3]heptan-2-yl]-[5-fluoro-6-[(1-methylcyclopropyl)methoxy]-3-pyridyl]methanone]
24 | 108 | CC1(COc2ncc(C(=O)N3CC4(CC(n5cnc(C6CC6)c5)C4)C3)cc2F)CC1 [Example 30]
25 | 353 | O=C(c1cnc(OCC2(C(F)(F)F)CC2)nc1)N1CC2(CC(n3cnc(C4CC4)n3)C2)C1 [Example 31, [6-(3-cyclopropyl-1,2,4-triazol-1-yl)-2-azaspiro[3.3]heptan-2-yl]-[2-[[1-(trifluoromethyl)cyclo-propyl]methoxy]pyrimidin-5-yl] methanone]
26 | 2820 | Cc1cc(C(=O)N2CC3(CC(n4cnc(C5CC5)n4)C3)C2)nnc1OCC1(C(F)(F)F)CC1 [Example 32, [6-(3-cyclopropyl-1,2,4-triazol-1-yl)-2-azaspiro[3.3]heptan-2-yl]-[5-methyl-6-[[1-(trifluoromethyl)cyclo-propyl]methoxy]pyridazin-3-yl] methanone]
27 | 0.4 | O=C(N1CC(c2ccc(OC(F)(F)F)cc2)C1)N1CC2(CC(n3cnc(C4CC4)n3)C2)C1 [Example 33, [6-(3-cyclopropyl-1,2,4-triazol-1-yl)-2-azaspiro[3.3]heptan-2-yl]−[3-[4-(trifluoromethoxy)phenyl]azetidin-1-yl]methanone]
